In patent US20230002359A1, “PESTICIDALLY ACTIVE FUSED BICYCLIC HETEROAROMATIC COMPOUNDS” (priority 2019, published 2023):

Legend:
Type in all cases: in vivo
[1] = system: Diabrotica Balteata (Corn Root Worm); assay: Example B1: Diabrotica balteata (corn root worm), maize sprouts sprayed, L2 larvae; settings: 96 h, application rate of 200 ppm, 4 days after infestation, L2 larvae, read-out: control in at least one of the two categories (mortality or growth inhibition)
Protocol: Maize sprouts placed onto an agar layer in 24-well microtiter plates were treated with aqueous test solutions prepared from 10′000 ppm DMSO stock solutions by spraying. After drying, the plates were infested with L2 larvae (6 to 10 per well). The samples were assessed for mortality and growth inhibition in comparison to untreated samples 4 days after infestation.

[2] = system: Plutella xylostella (Diamond Back Moth); assay: Example B4: Plutella xylostella (diamond back moth), artificial diet, eggs, 24-well; settings: 192 h, application rate of 200 ppm, 8 days after infestation, eggs, read-out: control in at least one of the two categories (mortality or growth inhibition)
Protocol: 24-well microtiter plates with artificial diet were treated with aqueous test solutions prepared from 10′000 ppm DMSO stock solutions by pipetting. After drying, Plutella eggs were pipetted through a plastic stencil onto a gel blotting paper and the plate was closed with it. The samples were assessed for mortality and growth inhibition in comparison to untreated samples 8 days after infestation.

[3] = system: Chilo suppressalis (Striped Rice Stemborer); assay: Example B3: Chilo suppressalis (striped rice stemborer), artificial diet, L2 larvae; settings: 144 h, application rate of 200 ppm, 6 days after infestation, L2 larvae, read-out: control in at least one of the three categories (mortality, anti-feedant effect, or growth inhibition)
Protocol: 24-well microtiter plates with artificial diet were treated with aqueous test solutions prepared from 10′000 ppm DMSO stock solutions by pipetting. After drying, the plates were infested with L2 larvae (6-8 per well). The samples were assessed for mortality, anti-feeding effect, and growth inhibition in comparison to untreated samples 6 days after infestation. Control of Chilo suppressalis by a test sample is given when at least one of the categories mortality, anti-feedant effect, and growth inhibition is higher than the untreated sample.

[4] = system: Spodoptera littoralis (Egyptian Cotton Leaf Worm); assay: Example B7: Spodoptera littoralis (Egyptian cotton leaf worm), cotton leaf discs sprayed, L1 larvae; settings: foliar, 72 h, application rate of 200 ppm, 3 days after infestation, L1 larvae, read-out: control in at least one of the three categories (mortality, anti-feedant effect, or growth inhibition)
Protocol: Cotton leaf discs were placed onto agar in 24-well microtiter plates and sprayed with aqueous test solutions prepared from 10′000 ppm DMSO stock solutions. After drying the leaf discs were infested with five L1 larvae. The samples were assessed for mortality, anti-feeding effect, and growth inhibition in comparison to untreated samples 3 days after infestation. Control of Spodoptera littoralis by a test sample is given when at least one of the categories mortality, anti-feedant effect, and growth inhibition is higher than the untreated sample.

CC(c1ncnn1-c1ccc(C#N)cn1)N(C)c1ncnc2c(Br)cc(Br)cc12 (centres unmarked) [P.257, 6-[5-[1-[(6,8-dibromoquinazolin-4-yl)-methyl-amino]ethyl]-1,2,4-triazol-1-yl]pyridin-3-carbonitrile]
≥ 80%: percent control (mortality or growth inhibition) at 200 ppm [1] | percent control (mortality or growth inhibition) at 200 ppm [2] | percent control (mortality, anti-feedant effect or growth inhibition) at 200 ppm [3] | percent control (mortality, anti-feedant effect or growth inhibition) at 200 ppm [4]

CC(Nc1ncnc2c(Br)cc(C(F)(F)F)cc12)c1nccnc1-n1nccn1 (centres unmarked) [P.34, 8-bromo-N-[1-[3-(triazol-2-yl)pyrazin-2-yl]ethyl]-6-(trifluoromethyl)quinazolin-4-amine]
≥ 80%: percent control (mortality or growth inhibition) at 200 ppm [1] | percent control (mortality or growth inhibition) at 200 ppm [2] | percent control (mortality, anti-feedant effect or growth inhibition) at 200 ppm [3] | percent control (mortality, anti-feedant effect or growth inhibition) at 200 ppm [4]

CC(c1nccnc1-n1nccn1)N(C)c1ncnc2c(C(F)(F)F)cc(Cl)cc12 (centres unmarked) [P.129, 6-chloro-N-methyl-N-[1-[3-(triazol-2-yl)pyrazin-2-yl]ethyl]-8-(trifluoromethyl)quinazolin-4-amine]
≥ 80%: percent control (mortality or growth inhibition) at 200 ppm [1] | percent control (mortality or growth inhibition) at 200 ppm [2] | percent control (mortality, anti-feedant effect or growth inhibition) at 200 ppm [3] | percent control (mortality, anti-feedant effect or growth inhibition) at 200 ppm [4]

C[C@H](Nc1ccnc2c(C(F)(F)F)cc(C(F)(F)F)cc12)c1ncnn1-c1ncccn1 [P.5, N-[(1S)-1-(2-pyrimidin-2-yl-1,2,4-triazol-3-yl)ethyl]-6,8-bis(trifluoromethyl)quinolin-4-amine]
≥ 80%: percent control (mortality or growth inhibition) at 200 ppm [1] | percent control (mortality or growth inhibition) at 200 ppm [2] | percent control (mortality, anti-feedant effect or growth inhibition) at 200 ppm [3] | percent control (mortality, anti-feedant effect or growth inhibition) at 200 ppm [4]

CC(Nc1ncnc2c(C(F)(F)F)cc(C(F)(F)F)cc12)c1nccnc1-c1ccc(C#N)cn1 (centres unmarked) [P.115, 6-[3-[1-[[6,8-bis(trifluoromethyl)quina-zolin-4-yl]amino]ethyl]pyrazin-2-yl]pyridine-3-carbonitrile]
≥ 80%: percent control (mortality or growth inhibition) at 200 ppm [1] | percent control (mortality or growth inhibition) at 200 ppm [2] | percent control (mortality, anti-feedant effect or growth inhibition) at 200 ppm [3] | percent control (mortality, anti-feedant effect or growth inhibition) at 200 ppm [4]

CC(c1nccnc1-c1ncccn1)N(CC1CC1)c1ncnc2c(C(F)(F)F)cc(C(F)(F)F)cc12 (centres unmarked) [P.108, N-(cyclopropylmethyl)-N-[1-(3-pyrimidin-2-ylpyrazin-2-yl)ethyl]-6,8-bis(trifluoromethyl)quina-zolin-4-amine]
≥ 80%: percent control (mortality or growth inhibition) at 200 ppm [1] | percent control (mortality or growth inhibition) at 200 ppm [2] | percent control (mortality, anti-feedant effect or growth inhibition) at 200 ppm [3] | percent control (mortality, anti-feedant effect or growth inhibition) at 200 ppm [4]

CC(Nc1ncnc2c(Br)cc(Br)cc12)c1nccnc1-n1nccn1 (centres unmarked) [P.37, 6,8-dibromo-N-[1-[3-(triazol-2-yl)pyrazin-2-yl]ethyl]quinazolin-4-amine]
≥ 80%: percent control (mortality or growth inhibition) at 200 ppm [1] | percent control (mortality or growth inhibition) at 200 ppm [2] | percent control (mortality, anti-feedant effect or growth inhibition) at 200 ppm [3] | percent control (mortality, anti-feedant effect or growth inhibition) at 200 ppm [4]

CC(c1ncnn1-c1ccc(Br)cn1)N(C)c1ncnc2c(C(F)(F)F)cc(C(F)(F)F)cc12 (centres unmarked) [P.241, N-[1-[2-(5-bromo-2-pyridyl)-1,2,4-triazol-3-yl]ethyl]-N-methyl-6,8-bis(trifluoromethyl)quina-zolin-4-amine]
≥ 80%: percent control (mortality or growth inhibition) at 200 ppm [1] | percent control (mortality or growth inhibition) at 200 ppm [2] | percent control (mortality, anti-feedant effect or growth inhibition) at 200 ppm [3] | percent control (mortality, anti-feedant effect or growth inhibition) at 200 ppm [4]

CC(Nc1ncnc2c(Br)cc(Cl)cc12)c1nccnc1-n1nccn1 (centres unmarked) [P.173, 8-bromo-6-chloro-N-[1-[3-(triazol-2-yl)pyrazin-2-yl]ethyl]quinazolin-4-amine]
≥ 80%: percent control (mortality or growth inhibition) at 200 ppm [1] | percent control (mortality or growth inhibition) at 200 ppm [2] | percent control (mortality, anti-feedant effect or growth inhibition) at 200 ppm [3] | percent control (mortality, anti-feedant effect or growth inhibition) at 200 ppm [4]

C[C@@H](c1ncnn1-c1ccc(C#N)cn1)N(C)c1ccnc2c(C(F)(F)F)cc(Br)cc12 [P.206, 6-[5-[(1S)-1-[[6-bromo-8-(trifluoromethyl)-4-quinolyl]-methyl-amino]ethyl]-1,2,4-triazol-1-yl]pyridine-3-carbonitrile]
≥ 80%: percent control (mortality or growth inhibition) at 200 ppm [1] | percent control (mortality or growth inhibition) at 200 ppm [2] | percent control (mortality, anti-feedant effect or growth inhibition) at 200 ppm [3] | percent control (mortality, anti-feedant effect or growth inhibition) at 200 ppm [4]

CC(Nc1ncnc2c(Cl)cc(C(F)(F)F)cc12)c1ncnn1-c1ccc(F)cn1 (centres unmarked) [P.274, 8-chloro-N-[1-[2-(5-fluroo-2-pyridyl)-1,2,4-triazol-3-yl]ethyl]-6-(trifluoromethyl)quinazolin-4-amine]
≥ 80%: percent control (mortality or growth inhibition) at 200 ppm [1] | percent control (mortality or growth inhibition) at 200 ppm [2] | percent control (mortality, anti-feedant effect or growth inhibition) at 200 ppm [3] | percent control (mortality, anti-feedant effect or growth inhibition) at 200 ppm [4]

CC(Nc1ncnc2c(C(F)(F)F)cc(Cl)cc12)c1nccnc1-c1ccc(C#N)cn1 (centres unmarked) [P.118, 6-[3-[1-[[6-chloro-8-(trifluoromethyl)quinazolin-4-yl]amino]ethyl]pyrazin-2-yl]pyridine-3-carbonitrile]
≥ 80%: percent control (mortality or growth inhibition) at 200 ppm [1] | percent control (mortality or growth inhibition) at 200 ppm [2] | percent control (mortality, anti-feedant effect or growth inhibition) at 200 ppm [3] | percent control (mortality, anti-feedant effect or growth inhibition) at 200 ppm [4]

CC(Nc1ncnc2c(Cl)cc(Br)cc12)c1nccnc1-c1ncccn1 (centres unmarked) [P.178, 6-bromo-8-chloro-N-[1-(3-pyrimidin-2-ylpyrazin-2-yl)ethyl]quinazolin-4-amine]
≥ 80%: percent control (mortality or growth inhibition) at 200 ppm [1] | percent control (mortality or growth inhibition) at 200 ppm [2] | percent control (mortality, anti-feedant effect or growth inhibition) at 200 ppm [3] | percent control (mortality, anti-feedant effect or growth inhibition) at 200 ppm [4]

CC(c1nccnc1-c1ccc(C#N)cn1)N(C)c1ncnc2c(Cl)cc(C(F)(F)F)cc12 (centres unmarked) [P.122]
≥ 80%: percent control (mortality or growth inhibition) at 200 ppm [1] | percent control (mortality or growth inhibition) at 200 ppm [2] | percent control (mortality, anti-feedant effect or growth inhibition) at 200 ppm [3] | percent control (mortality, anti-feedant effect or growth inhibition) at 200 ppm [4]

CC(Nc1ncnc2c(C(F)(F)F)cc(Br)cc12)c1nccnc1-n1nccn1 (centres unmarked) [P.33, 6-bromo-N-[1-[3-(triazol-2-yl)pyrazin-2-yl]ethyl]-8-(trifluoromethyl)quinazolin-4-amine]
≥ 80%: percent control (mortality or growth inhibition) at 200 ppm [1] | percent control (mortality or growth inhibition) at 200 ppm [2] | percent control (mortality, anti-feedant effect or growth inhibition) at 200 ppm [3] | percent control (mortality, anti-feedant effect or growth inhibition) at 200 ppm [4]

C[C@@H](c1ncnn1-c1ncccn1)N(C)c1c(F)cnc2c(C(F)(F)F)cc(C(F)(F)F)cc12 [P.176, 3-fluoro-N-methyl-N-[(1S)-1-(2-pyrimidin-2-yl-1,2,4-triazol-3-yl)ethyl]-6,8-bis(trifluoromethyl)quinolin-4-amine]
≥ 80%: percent control (mortality or growth inhibition) at 200 ppm [1] | percent control (mortality or growth inhibition) at 200 ppm [2] | percent control (mortality, anti-feedant effect or growth inhibition) at 200 ppm [3] | percent control (mortality, anti-feedant effect or growth inhibition) at 200 ppm [4]

C[C@@H](c1ncnn1-c1ccc(C#N)cn1)N(C)c1ncnc2c(C(F)(F)F)cc(C(F)(F)C3CC3)cc12 [P.163, 6-[5-[(1S)-1-[[6-[cyclopropyl(difluoro)meth-yl]-8-(trifluoromethyl)quinazolin-4-yl]-methyl-amino]ethyl]-1,2,4-triazol-1-yl]pyridine-3-carbonitrile]
≥ 80%: percent control (mortality or growth inhibition) at 200 ppm [1] | percent control (mortality or growth inhibition) at 200 ppm [2] | percent control (mortality, anti-feedant effect or growth inhibition) at 200 ppm [3] | percent control (mortality, anti-feedant effect or growth inhibition) at 200 ppm [4]
